Values after ≈ are worked out from the molar mass of the structure shown.

In the assay the test system is N. gonorrhoeae. Put plainly: MIC against N. gonorrhoeae clinical isolates, normal and CO2 conditions. The format is cell-based. The following applies: Neisseria gonorrhoeae. How it is done: These tests were performed in normal culture conditions with standard CO2 levels and in CO2 (5% in incubator) conditions.
Setting [1] is: N. gonorrhoeae 178, Non CO2 environment.
Where [2] appears, read: N. gonorrhoeae 178, normal growth environment (with CO2).
Where [3] appears, read: N. gonorrhoeae 181, Non CO2 environment.
The mark [4] stands for this setting: N. gonorrhoeae 181, normal growth environment (with CO2).
[5] abbreviates: N. gonorrhoeae 194, Non CO2 environment.
The mark [6] stands for this setting: N. gonorrhoeae 194, normal growth environment (with CO2).

For `CC(C)=CC(=O)Nc1nnc(S(N)(=O)=O)s1` [CAI 0016], the MIC was 16 µg/mL (≈ 61 µM) under setting [1]; 64 µg/mL (≈ 244 µM) under setting [2]; 16 µg/mL (≈ 61 µM) under setting [3]; 32 µg/mL (≈ 122 µM) under setting [4]; 32 µg/mL (≈ 122 µM) under setting [5]; 64 µg/mL (≈ 244 µM) under setting [6].
With `NS(=O)(=O)c1nnc(NC(=O)C2CCCC2)s1` [CAI 0023], the MIC was 8 µg/mL (≈ 28.9 µM) under setting [1]; 32 µg/mL (≈ 116 µM) under setting [2]; 8 µg/mL (≈ 28.9 µM) under setting [3]; 64 µg/mL (≈ 232 µM) under setting [4]; 8 µg/mL (≈ 28.9 µM) under setting [5]; 64 µg/mL (≈ 232 µM) under setting [6].
In the case of `CCCC(=O)Nc1nnc(S(N)(=O)=O)s1` [CAI 0013], the MIC by setting is: under setting [2], 8 µg/mL (≈ 32 µM); under setting [3], 8 µg/mL (≈ 32 µM); under setting [4], 32 µg/mL (≈ 128 µM); under setting [5], 4 µg/mL (≈ 16 µM); under setting [6], 8 µg/mL (≈ 32 µM).
As for `NS(=O)(=O)c1nnc(NC(=O)CN2CCCC2)s1` [CAI 0037], the MIC reads like this: under setting [1], > 64 µg/mL; under setting [2], > 64 µg/mL; under setting [3], > 64 µg/mL; under setting [4], > 64 µg/mL; under setting [5], > 64 µg/mL; under setting [6], > 64 µg/mL.
Turning to `Nc1nnc(S(N)(=O)=O)s1` [CAI 0034], the minimal inhibitory concentration (MIC) was 1 µg/mL (≈ 5.55 µM) under setting [1]; > 64 µg/mL under setting [2]; 4 µg/mL (≈ 22.2 µM) under setting [3]; > 64 µg/mL under setting [4]; 2 µg/mL (≈ 11.1 µM) under setting [5]; > 64 µg/mL under setting [6].
In the case of `CCCCCCC(=O)Nc1nnc(S(N)(=O)=O)s1` [CAI 0027], the MIC runs as follows: under setting [1], 2 µg/mL (≈ 6.84 µM); under setting [2], 32 µg/mL (≈ 109 µM); under setting [3], 2 µg/mL (≈ 6.84 µM); under setting [4], 64 µg/mL (≈ 219 µM); under setting [5], 1 µg/mL (≈ 3.42 µM); under setting [6], 64 µg/mL (≈ 219 µM).
With `CC(C)(C)C(=O)Nc1nnc(S(N)(=O)=O)s1` [CAI 0010], the MIC is 32 µg/mL (≈ 121 µM) under setting [1]; 32 µg/mL (≈ 121 µM) under setting [2]; 32 µg/mL (≈ 121 µM) under setting [3]; > 64 µg/mL under setting [4]; 32 µg/mL (≈ 121 µM) under setting [5]; 64 µg/mL (≈ 242 µM) under setting [6].
With `NS(=O)(=O)c1nnc(NC(=O)C2CCC2)s1` [CAI 0018], the MIC runs as follows: under setting [1], 16 µg/mL (≈ 61 µM); under setting [2], 64 µg/mL (≈ 244 µM); under setting [3], 16 µg/mL (≈ 61 µM); under setting [4], > 64 µg/mL; under setting [5], 8 µg/mL (≈ 30.5 µM); under setting [6], 32 µg/mL (≈ 122 µM).
Take `NS(=O)(=O)c1nnc(NC(=O)CCC2CCCC2)s1` [CAI 0015]: the minimal inhibitory concentration (MIC) reads like this: under setting [1], 2 µg/mL (≈ 6.57 µM); under setting [2], 16 µg/mL (≈ 52.6 µM); under setting [3], 1 µg/mL (≈ 3.29 µM); under setting [4], > 64 µg/mL; under setting [5], 4 µg/mL (≈ 13.1 µM); under setting [6], 64 µg/mL (≈ 210 µM).
Consider `NS(=O)(=O)c1nnc(NC(=O)CC2CCCCC2)s1` [CAI 0029], for which the minimum inhibitory concentration (MIC) by setting is: under setting [1], 1 µg/mL (≈ 3.29 µM); under setting [2], 32 µg/mL (≈ 105 µM); under setting [3], 0.5 µg/mL (≈ 1.64 µM); under setting [4], > 64 µg/mL; under setting [5], 2 µg/mL (≈ 6.57 µM); under setting [6], > 64 µg/mL.
Take `CC(C)(C)CC(=O)Nc1nnc(S(N)(=O)=O)s1` [CAI 0028]: the MIC is 8 µg/mL (≈ 28.7 µM) under setting [1]; 32 µg/mL (≈ 115 µM) under setting [2]; 16 µg/mL (≈ 57.5 µM) under setting [3]; 64 µg/mL (≈ 230 µM) under setting [4]; 32 µg/mL (≈ 115 µM) under setting [5]; 64 µg/mL (≈ 230 µM) under setting [6].
Regarding `CC(C)CC(=O)Nc1nnc(S(N)(=O)=O)s1` [CAI 0026], the MIC under setting [1] worked out at 8 µg/mL (≈ 30.3 µM); the MIC under setting [2] worked out at 32 µg/mL (≈ 121 µM); the MIC under setting [3] stood at 8 µg/mL (≈ 30.3 µM); the MIC under setting [4] was > 64 µg/mL; the MIC under setting [5] is 4 µg/mL (≈ 15.1 µM); the MIC under setting [6] was > 64 µg/mL.
Turning to `NS(=O)(=O)c1nnc(NC(=O)CN2CCCCC2)s1` [CAI 0035], the MIC is, setting by setting: under setting [1], 64 µg/mL (≈ 210 µM); under setting [2], > 64 µg/mL; under setting [3], > 64 µg/mL; under setting [4], > 64 µg/mL; under setting [5], 64 µg/mL (≈ 210 µM); under setting [6], > 64 µg/mL.
With `NS(=O)(=O)c1nnc(NC(=O)c2ccccc2)s1` [CAI 0012], the MIC is 2 µg/mL (≈ 7.03 µM) under setting [1]; 16 µg/mL (≈ 56.3 µM) under setting [2]; 4 µg/mL (≈ 14.1 µM) under setting [3]; > 64 µg/mL under setting [4]; 2 µg/mL (≈ 7.03 µM) under setting [5]; 64 µg/mL (≈ 225 µM) under setting [6].

The term MIC denotes the least concentration at which growth counts as inhibited. The low end stands for a more susceptible organism, the high end for a less susceptible organism.

For the origin of these results see patent publication US20220213047A1, “CARBONIC ANHYDRASE INHIBITORS FOR TREATMENT OF NEISSERIA GONORRHOEAE INFECTION” (Purdue Research Foundation, priority 2021, published 2022).
